From patent publication US10774051B2, “6-membered heterocyclic derivatives and pharmaceutical composition comprising the same” (Shionogi & Co., Ltd., priority 2015, dated 2020)
Where two headings read alike, the source gives them in different places.

Molecular target: human P2X7 receptor (Homo sapiens, UniProt Q99572, R270H/Y155H)
Experiment: Evaluation of human P2X7 receptor inhibitory activity (Yo-Pro uptake, BzATP stimulation, FLIPR TETRA)
Format: cell-based
Outline: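 1321N1 cells stably expressing human P2X7 (T606C/G952A SNP variant), in HBSS buffer pH 7.4-7.5 with Yo-Pro, stimulated with BzATP; compound added 8 min after agonist. Fluorescence followed for 20 min on FLIPR; max-minus-min change gave % inhibition, IC50 by logistic fit.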

[1] = antagonistic activity for the human P2X7 receptor, read-out: IC50
[2] = 1321N1 cells stably expressing human P2X7 receptor, BzATP stimulation, Yo-Pro uptake, read-out: IC50 (antagonistic activity for the human P2X7 receptor)

Row | Structure (SMILES) | IC50 [1] [µM] | IC50 [2] [µM]
1 | Cc1ccc(-c2ncco2)cc1Nc1nc(=O)c(Cl)cn1Cc1ccc(F)c(Cl)c1 [Compound I-0852] | < 0.01 | –
2 | Cc1ccc(-c2ncco2)cc1Nc1nc(=O)c(Cl)cn1Cc1ccc(F)c(F)c1 [Compound I-0853] | < 0.01 | –
3 | Cc1ccc(-c2ncco2)cc1Nc1nc(=O)c(Cl)cn1Cc1cc(F)cc(F)c1 [Compound I-0854] | < 0.01 | –
4 | COc1cn(Cc2ccccc2)c(Nc2ccc3ncsc3c2C)nc1=O [Compound I-0855] | 0.01 to 0.1 | –
5 | COc1cn(Cc2ccc(F)c(Cl)c2)c(Nc2ccc3ncsc3c2C)nc1=O [Compound I-0856] | 0.01 to 0.1 | –
6 | COc1cn(Cc2cc(F)cc(F)c2)c(Nc2ccc3ncsc3c2C)nc1=O [Compound I-0857] | – | 0.026
7 | COc1cn(Cc2ccccc2)c(Nc2ccc3nc(C)sc3c2C)nc1=O [Compound I-0858] | – | 0.01
8 | COc1cn(Cc2ccc(F)c(Cl)c2)c(Nc2ccc3nc(C)sc3c2C)nc1=O [Compound I-0859] | 0.01 to 0.1 | –
9 | COc1cn(Cc2cc(F)cc(F)c2)c(Nc2ccc3nc(C)sc3c2C)nc1=O [Compound I-0860] | 0.01 to 0.1 | –
10 | Cc1ccc(-c2cscn2)cc1Nc1nc(=O)c(F)cn1Cc1ccc(F)c(F)c1 [Compound I-0861] | < 0.01 | –
11 | CCOc1ccc(C)c(Nc2nc(=O)c(OC)cn2Cc2cc(F)c(F)c(F)c2)c1 [Compound I-0862] | < 0.01 | –
12 | COc1cc(Nc2nc(=O)c(OC)cn2Cc2cc(F)c(F)c(F)c2)c(C)cc1F [Compound I-0863] | < 0.01 | –
13 | COc1cn(Cc2ccc(F)c(Cl)c2)c(Nc2cc3c(cc2C)OCC3)nc1=O [Compound I-0864] | < 0.01 | –
14 | COc1cn(Cc2cc(F)cc(F)c2)c(Nc2cc3c(cc2C)OCC3)nc1=O [Compound I-0865] | – | 0.008
15 | COc1cn(Cc2cc(F)c(F)c(F)c2)c(Nc2cc3c(cc2C)OCC3)nc1=O [Compound I-0866] | < 0.01 | –
16 | Cc1ccc(-c2cscn2)cc1Nc1nc(=O)c(F)cn1Cc1cc(F)cc(F)c1 [Compound I-0867] | < 0.01 | –
17 | CCOc1cc(C)c(Nc2nc(=O)c(OC)cn2Cc2cc(F)c(F)c(F)c2)cc1F [Compound I-0868] | 0.01 to 0.1 | –
18 | COc1cn(Cc2cc(F)c(F)c(F)c2)c(Nc2cc(OC(F)(F)F)ccc2C)nc1=O [Compound I-0869] | 0.01 to 0.1 | –
19 | COc1cn(Cc2ccccc2)c(Nc2cc(OC(F)F)ccc2C)nc1=O [Compound I-0870] | 0.01 to 0.1 | –
20 | COc1cn(Cc2ccc(F)c(Cl)c2)c(Nc2cc(OC(F)F)ccc2C)nc1=O [Compound I-0871] | 0.01 to 0.1 | –
21 | COc1cn(Cc2cc(F)cc(Cl)c2)c(Nc2cc(OC(F)F)ccc2C)nc1=O [Compound I-0872] | 0.01 to 0.1 | –
22 | COc1cn(Cc2ccc(F)c(F)c2)c(Nc2cc(OC(F)F)ccc2C)nc1=O [Compound I-0873] | 0.01 to 0.1 | –
23 | COc1cn(Cc2cc(F)cc(F)c2)c(Nc2cc(OC(F)F)ccc2C)nc1=O [Compound I-0874] | 0.01 to 0.1 | –
24 | COc1cn(Cc2ccccc2)c(Nc2cc(OC(F)F)c(C)cc2C)nc1=O [Compound I-0875] | 0.01 to 0.1 | –
25 | COc1cn(Cc2ccc(F)c(Cl)c2)c(Nc2cc(OC(F)F)c(C)cc2C)nc1=O [Compound I-0876] | < 0.01 | –
26 | COc1cn(Cc2cc(F)cc(Cl)c2)c(Nc2cc(OC(F)F)c(C)cc2C)nc1=O [Compound I-0877] | 0.01 to 0.1 | –

Row | Structure (SMILES) | IC50 [1] [µM] | IC50 [2] [µM]
27 | COc1cn(Cc2ccc(F)c(F)c2)c(Nc2cc(OC(F)F)c(C)cc2C)nc1=O [Compound I-0878] | < 0.01 | –
28 | COc1cn(Cc2cc(F)cc(F)c2)c(Nc2cc(OC(F)F)c(C)cc2C)nc1=O [Compound I-0879] | < 0.01 | –
29 | COc1cn(Cc2ccc(F)c(Cl)c2)c(Nc2cccc3c2ccc(=O)n3C)nc1=O [Compound I-0881] | 0.1 to 0.5 | –
30 | COc1cn(Cc2cc(F)cc(F)c2)c(Nc2cccc3c2ccc(=O)n3C)nc1=O [Compound I-0882] | 0.5 to 1 | –
31 | COc1cn(Cc2ccccc2)c(Nc2cc(N3CCCC3)ccc2C)nc1=O [Compound I-0883] | 0.01 to 0.1 | –
32 | COc1cn(Cc2ccc(F)c(Cl)c2)c(Nc2cc(N3CCCC3)ccc2C)nc1=O [Compound I-0884] | 0.01 to 0.1 | –
33 | COc1cn(Cc2cc(F)cc(F)c2)c(Nc2cc(N3CCCC3)ccc2C)nc1=O [Compound I-0885] | 0.01 to 0.1 | –
34 | COc1cn(Cc2ccccc2)c(Nc2cc(F)c(Cl)cc2C)nc1=O [Compound I-0886] | 0.01 to 0.1 | –
35 | COc1cn(Cc2ccc(F)c(Cl)c2)c(Nc2cc(F)c(Cl)cc2C)nc1=O [Compound I-0887] | 0.01 to 0.1 | –
36 | COc1cn(Cc2ccccc2)c(Nc2cc(OC3CC3)ccc2C)nc1=O [Compound I-0888] | 0.01 to 0.1 | –
37 | COc1cn(Cc2ccc(F)c(Cl)c2)c(Nc2cc(OC3CC3)ccc2C)nc1=O [Compound I-0889] | < 0.01 | –
38 | COc1cn(Cc2ccc(F)c(F)c2)c(Nc2cc(OC3CC3)ccc2C)nc1=O [Compound I-0890] | 0.01 to 0.1 | –
39 | COc1cn(Cc2cc(F)cc(Cl)c2)c(Nc2cc(OC3CC3)ccc2C)nc1=O [Compound I-0891] | 0.01 to 0.1 | –
40 | COc1cn(Cc2cc(F)cc(F)c2)c(Nc2cc(OC3CC3)ccc2C)nc1=O [Compound I-0892] | 0.01 to 0.1 | –
41 | CCOc1cn(Cc2ccccc2)c(Nc2cc(OC)c(OC)cc2CC)nc1=O [Compound I-0893] | < 0.01 | –
42 | COc1cn(Cc2cc(F)c(F)c(F)c2)c(Nc2cc(-n3cccc3)ccc2C)nc1=O [Compound I-0894] | < 0.01 | –
43 | COc1cn(Cc2ccccc2)c(Nc2cc(Oc3ccccn3)ccc2C)nc1=O [Compound I-0895] | 0.01 to 0.1 | –
44 | COc1cn(Cc2ccc(F)c(Cl)c2)c(Nc2cc(Oc3ccccn3)ccc2C)nc1=O [Compound I-0896] | < 0.01 | –
45 | COc1cn(Cc2cc(F)cc(F)c2)c(Nc2cc(Oc3ccccn3)ccc2C)nc1=O [Compound I-0897] | < 0.01 | –
46 | COc1cn(Cc2ccc(F)cc2)c(Nc2cc(Oc3ccccn3)ccc2C)nc1=O [Compound I-0898] | 0.01 to 0.1 | –
47 | COc1cn(Cc2cc(F)c(F)c(F)c2)c(Nc2cc(Oc3ccccn3)ccc2C)nc1=O [Compound I-0899] | < 0.01 | –
48 | COc1cn(Cc2cc(F)cc(F)c2)c(Nc2ccc3c(c2C)COC3)nc1=O [Compound I-0900] | – | 0.012
49 | COc1cn(Cc2ccccc2)c(Nc2cccc3c(=O)n(C)ccc23)nc1=O [Compound I-0901] | 0.1 to 0.5 | –
50 | COc1cn(Cc2ccc(F)c(Cl)c2)c(Nc2cccc3c(=O)n(C)ccc23)nc1=O [Compound I-0902] | 0.01 to 0.1 | –
51 | COc1cn(Cc2ccc(F)c(F)c2)c(Nc2cccc3c(=O)n(C)ccc23)nc1=O [Compound I-0903] | 0.01 to 0.1 | –
52 | COc1cn(Cc2cc(F)cc(Cl)c2)c(Nc2cccc3c(=O)n(C)ccc23)nc1=O [Compound I-0904] | 0.01 to 0.1 | –

Row | Structure (SMILES) | IC50 [1] [µM] | IC50 [2] [µM]
53 | COc1cn(Cc2cc(F)cc(F)c2)c(Nc2cccc3c(=O)n(C)ccc23)nc1=O [Compound I-0905] | 0.1 to 0.5 | –
54 | COc1cn(Cc2ccc(F)c(Cl)c2)c(Nc2cc3c(cc2C)COC3)nc1=O [Compound I-0906] | 0.01 to 0.1 | –
55 | COc1cn(Cc2ccc(F)c(Cl)c2)c(Nc2ccc3c(c2C)COC3)nc1=O [Compound I-0907] | < 0.01 | –
56 | CCc1cc(OC)c(OC)cc1Nc1nc(=O)c(OC)cn1Cc1cc(F)c(F)c(F)c1 [Compound I-0908] | < 0.01 | –
57 | CCOc1cn(Cc2ccc(F)c(Cl)c2)c(Nc2cc(OC)c(OC)cc2CC)nc1=O [Compound I-0909] | 0.01 to 0.1 | –
58 | COc1cn(Cc2cc(F)c(F)c(F)c2)c(Nc2ccc3c(c2C)COC3)nc1=O [Compound I-0911] | 0.01 to 0.1 | –
59 | COc1cn(Cc2ccc(F)c(Cl)c2)c(Nc2cc3c(cc2C)OCC=C3)nc1=O [Compound I-0912] | – | 0.022
60 | COc1cn(Cc2cc(F)cc(F)c2)c(Nc2cc3c(cc2C)OCCC3)nc1=O [Compound I-0913] | 0.01 to 0.1 | –
61 | COc1cn(Cc2ccc(F)c(Cl)c2)c(Nc2cc3c(cc2C)OCCC3)nc1=O [Compound I-0914] | – | 0.022
62 | C#Cc1cc(Nc2nc(=O)c(OC)cn2Cc2cc(F)cc(F)c2)c(C)cc1F [Compound I-0915] | 0.01 to 0.1 | –
63 | C#Cc1cc(Nc2nc(=O)c(OC)cn2Cc2ccc(F)c(Cl)c2)c(C)cc1F [Compound I-0916] | 0.01 to 0.1 | –
64 | COc1cn(Cc2cc(F)c(F)c(F)c2)c(Nc2cc3c(cc2C)OCCC3)nc1=O [Compound I-0917] | 0.01 to 0.1 | –
65 | CCOc1cc(Nc2nc(=O)c(OC)cn2Cc2ccccc2)c(C)cc1F [Compound I-0918] | 0.01 to 0.1 | –
66 | CCOc1cc(Nc2nc(=O)c(OC)cn2Cc2ccc(F)c(Cl)c2)c(C)cc1F [Compound I-0919] | 0.01 to 0.1 | –
67 | CCOc1cc(Nc2nc(=O)c(OC)cn2Cc2cc(F)cc(F)c2)c(C)cc1F [Compound I-0920] | 0.01 to 0.1 | –
68 | CCOc1cc(Nc2nc(=O)c(OC)cn2Cc2cc(F)c(F)c(F)c2)c(C)cc1F [Compound I-0921] | < 0.01 | –
69 | COc1cn(Cc2ccccc2)c(Nc2cc(C)c(OC(F)(F)F)cc2C)nc1=O [Compound I-0922] | < 0.01 | –
70 | COc1cn(Cc2ccc(F)c(Cl)c2)c(Nc2cc(C)c(OC(F)(F)F)cc2C)nc1=O [Compound I-0923] | 0.01 to 0.1 | –
71 | COc1cn(Cc2cc(F)cc(F)c2)c(Nc2cc(C)c(OC(F)(F)F)cc2C)nc1=O [Compound I-0924] | – | 0.017
72 | COc1cn(Cc2cc(F)c(F)c(F)c2)c(Nc2cc(C)c(OC(F)(F)F)cc2C)nc1=O [Compound I-0925] | 0.01 to 0.1 | –
73 | COc1cn(Cc2ccccc2)c(Nc2c(C)ccc(C)c2F)nc1=O [Compound I-0926] | 0.01 to 0.1 | –
74 | COc1cn(Cc2ccc(F)c(Cl)c2)c(Nc2c(C)ccc(C)c2F)nc1=O [Compound I-0927] | < 0.01 | –
75 | COc1cn(Cc2cc(F)cc(F)c2)c(Nc2c(C)ccc(C)c2F)nc1=O [Compound I-0928] | – | 0.01
76 | COc1cn(Cc2cc(F)c(F)c(F)c2)c(Nc2c(C)ccc(C)c2F)nc1=O [Compound I-0929] | < 0.01 | –
77 | COc1cn(Cc2ccc(F)c(Cl)c2)c(Nc2cc3c(cc2C)OCCC3=O)nc1=O [Compound I-0930] | 0.1 to 0.5 | –
78 | COc1cn(Cc2cc(F)c(F)c(F)c2)c(Nc2cc(N3CCOCC3)ccc2C)nc1=O [Compound I-0931] | 0.01 to 0.1 | –
